Laboratory results as given in ChEMBL document CHEMBL4368860, “Structure activity relationship of 2-arylalkynyl-adenine derivatives as human A3 adenosine receptor antagonists” (Medchemcomm, 2018).

Columns and labels:
[1] = target: Adenosine receptor A2a (Rattus norvegicus, UniProt P30543); test: Displacement of [3H]ZM241385 from rat A2A receptor
[2] = target: T1, Adenosine receptor A1 (Rattus norvegicus, UniProt P25099); test: Displacement of [3H]DPCPX from rat A1 receptor
T1 sequence (P25099 whole entry): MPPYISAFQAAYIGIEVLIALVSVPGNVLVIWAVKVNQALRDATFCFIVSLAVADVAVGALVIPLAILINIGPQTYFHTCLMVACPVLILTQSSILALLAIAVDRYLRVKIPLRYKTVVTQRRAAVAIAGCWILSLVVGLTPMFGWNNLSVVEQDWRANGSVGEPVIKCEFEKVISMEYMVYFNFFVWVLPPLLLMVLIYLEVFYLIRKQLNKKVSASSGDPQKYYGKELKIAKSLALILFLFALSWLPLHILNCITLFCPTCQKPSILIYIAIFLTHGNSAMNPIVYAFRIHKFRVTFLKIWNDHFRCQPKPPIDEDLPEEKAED

[3] = target: T2, Adenosine receptor A1 (Homo sapiens, UniProt P30542); test: Displacement of [3H]DPCPX from recombinant human A1 receptor expressed in CHO cell membranes
T2 sequence (P30542 whole entry): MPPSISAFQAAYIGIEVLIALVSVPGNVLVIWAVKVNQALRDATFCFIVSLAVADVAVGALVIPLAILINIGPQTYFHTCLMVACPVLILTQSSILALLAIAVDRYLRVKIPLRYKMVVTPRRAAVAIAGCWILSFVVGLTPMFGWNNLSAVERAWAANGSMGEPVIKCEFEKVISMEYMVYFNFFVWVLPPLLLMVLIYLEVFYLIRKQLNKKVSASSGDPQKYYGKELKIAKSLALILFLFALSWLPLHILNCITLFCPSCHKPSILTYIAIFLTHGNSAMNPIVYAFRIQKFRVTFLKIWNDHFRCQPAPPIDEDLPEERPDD

[4] = target: T3, Adenosine receptor A3 (Homo sapiens, UniProt P0DMS8); test: Displacement of [125I]I-AB-MECA from recombinant human adenosine A3 receptor expressed in CHO cell membranes
T3 sequence (P0DMS8 whole entry): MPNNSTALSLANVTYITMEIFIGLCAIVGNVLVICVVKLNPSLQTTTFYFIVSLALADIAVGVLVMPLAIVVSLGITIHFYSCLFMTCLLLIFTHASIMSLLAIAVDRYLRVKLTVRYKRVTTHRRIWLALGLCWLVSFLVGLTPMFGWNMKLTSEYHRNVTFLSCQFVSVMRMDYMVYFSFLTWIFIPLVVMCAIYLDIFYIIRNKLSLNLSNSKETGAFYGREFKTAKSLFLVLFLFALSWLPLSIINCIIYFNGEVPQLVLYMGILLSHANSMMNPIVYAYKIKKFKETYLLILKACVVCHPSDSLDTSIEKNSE

[5] = target: T4, Adenosine receptor A2a (Homo sapiens, UniProt P29274); test: Displacement of [3H]ZM241385 from human A2A receptor expressed in HEK293 cell membranes
[6] = target: T4, Adenosine receptor A2a; test: Displacement of [3H]ZM241385 from human A2A receptor expressed in HEK293 cell membranes at 10 uM; details: HEK293 cell membranes expressing human A2A receptor, probe [3H]ZM241385
[7] = target: T5, Adenosine receptor A1 (Homo sapiens) (UniProt P30542); test: Displacement of [3H]DPCPX from recombinant human A1 receptor expressed in CHO cell membranes at 10 uM
T5 sequence (whole entry): T2 sequence (P30542 whole entry)

[8] = target: T6, Adenosine receptor A2b (Homo sapiens, UniProt P29275); test: Displacement of [3H]-MRS-1754 from human A2B receptor expressed in HEK293 cell membranes at 10 uM; details: HEK293 cell membranes expressing human A2B receptor, probe [3H]-MRS-1754
T6 sequence (P29275 whole entry): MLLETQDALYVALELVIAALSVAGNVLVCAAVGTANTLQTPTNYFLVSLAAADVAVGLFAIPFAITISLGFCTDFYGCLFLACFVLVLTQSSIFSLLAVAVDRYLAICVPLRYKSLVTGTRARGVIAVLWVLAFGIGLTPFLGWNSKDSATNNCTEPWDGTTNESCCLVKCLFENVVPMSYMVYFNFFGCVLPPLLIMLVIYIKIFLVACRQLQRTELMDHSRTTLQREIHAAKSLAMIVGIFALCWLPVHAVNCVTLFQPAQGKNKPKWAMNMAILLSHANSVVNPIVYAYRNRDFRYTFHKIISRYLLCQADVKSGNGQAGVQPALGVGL

[9] = target: Alpha-2C adrenergic receptor (Homo sapiens, UniProt P18825); test: Displacement of [3H]Rauwolscine from human alpha 2C adrenergic receptor expressed in MDCK cells by radioligand binding assay; format: cell-based
[10] = target: 5-hydroxytryptamine receptor 2B (Homo sapiens, UniProt P41595); test: Displacement of [3H]-LSD from human 5-HT2B receptor expressed in HEK cell by radioligand binding assay
[11] = target: Adenosine receptor A3 (Homo sapiens) (UniProt P0DMS8); test: Displacement of [125I]I-AB-MECA from recombinant human adenosine A3 receptor expressed in CHO cell membranes at 10 uM
[12] = target: T3, Adenosine receptor A3; test: Antagonist activity at human A3AR expressed in CHO cells assessed as suppression of NECA-induced reduction in cAMP accumulation; format: functional, cell-based
[13] = target: Histamine H2 receptor (Homo sapiens, UniProt P25021); test: Displacement of [3H]Cimetidine from human H2 receptor expressed in HEK cells after 90 mins by scintillation counting method; format: cell-based
[14] = target: T7, Adenosine receptor A3 (Mus musculus) (UniProt Q61618); test: Displacement of [125I]I-AB-MECA from recombinant mouse adenosine A3 receptor expressed in HEK293 cell membranes at 10 uM
T7 sequence (whole entry): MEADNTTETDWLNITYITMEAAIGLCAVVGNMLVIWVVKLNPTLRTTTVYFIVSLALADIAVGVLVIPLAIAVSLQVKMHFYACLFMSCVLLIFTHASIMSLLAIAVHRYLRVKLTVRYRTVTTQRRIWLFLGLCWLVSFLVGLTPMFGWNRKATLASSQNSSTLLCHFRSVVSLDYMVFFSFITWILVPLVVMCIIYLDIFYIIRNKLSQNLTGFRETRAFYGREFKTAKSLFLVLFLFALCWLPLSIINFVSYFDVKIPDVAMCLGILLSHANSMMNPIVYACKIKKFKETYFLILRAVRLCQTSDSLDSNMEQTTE

[15] = target: Translocator protein (Homo sapiens, UniProt P30536); test: Displacement of [3H]PK11195 from human TSPO after 90 mins by scintillation counting method
[16] = target: 5-hydroxytryptamine receptor 2C (Homo sapiens, UniProt P28335); test: Displacement of [3H]-Mesulergine from human 5-HT2C receptor expressed in Flp-In-HEK cell by radioligand binding assay
Sequence of 5-hydroxytryptamine receptor 2C (P28335 whole entry): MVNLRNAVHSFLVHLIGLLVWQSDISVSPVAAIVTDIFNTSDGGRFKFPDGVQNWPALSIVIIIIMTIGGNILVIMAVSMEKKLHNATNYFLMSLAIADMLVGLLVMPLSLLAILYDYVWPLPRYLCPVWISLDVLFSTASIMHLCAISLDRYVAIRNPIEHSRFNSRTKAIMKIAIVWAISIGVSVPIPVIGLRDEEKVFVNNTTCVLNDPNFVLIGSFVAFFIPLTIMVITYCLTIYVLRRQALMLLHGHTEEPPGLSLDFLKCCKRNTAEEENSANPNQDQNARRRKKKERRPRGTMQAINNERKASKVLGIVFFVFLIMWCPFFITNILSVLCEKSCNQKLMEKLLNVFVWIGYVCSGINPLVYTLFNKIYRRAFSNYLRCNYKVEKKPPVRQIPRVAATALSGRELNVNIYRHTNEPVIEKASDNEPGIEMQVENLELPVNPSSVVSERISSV

T4 sequence (P29274 whole entry): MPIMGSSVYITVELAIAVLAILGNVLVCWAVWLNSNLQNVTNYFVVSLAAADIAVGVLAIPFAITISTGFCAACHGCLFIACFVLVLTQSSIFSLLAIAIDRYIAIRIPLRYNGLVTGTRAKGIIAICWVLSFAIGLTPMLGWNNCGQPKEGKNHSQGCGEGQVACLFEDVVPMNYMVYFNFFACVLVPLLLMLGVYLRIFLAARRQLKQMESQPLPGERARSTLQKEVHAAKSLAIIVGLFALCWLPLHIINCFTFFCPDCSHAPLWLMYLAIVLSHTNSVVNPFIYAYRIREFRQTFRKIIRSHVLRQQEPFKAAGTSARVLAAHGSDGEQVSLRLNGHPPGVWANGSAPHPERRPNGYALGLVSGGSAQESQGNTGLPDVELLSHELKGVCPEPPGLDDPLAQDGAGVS
Sequence of Alpha-2C adrenergic receptor (P18825 whole entry): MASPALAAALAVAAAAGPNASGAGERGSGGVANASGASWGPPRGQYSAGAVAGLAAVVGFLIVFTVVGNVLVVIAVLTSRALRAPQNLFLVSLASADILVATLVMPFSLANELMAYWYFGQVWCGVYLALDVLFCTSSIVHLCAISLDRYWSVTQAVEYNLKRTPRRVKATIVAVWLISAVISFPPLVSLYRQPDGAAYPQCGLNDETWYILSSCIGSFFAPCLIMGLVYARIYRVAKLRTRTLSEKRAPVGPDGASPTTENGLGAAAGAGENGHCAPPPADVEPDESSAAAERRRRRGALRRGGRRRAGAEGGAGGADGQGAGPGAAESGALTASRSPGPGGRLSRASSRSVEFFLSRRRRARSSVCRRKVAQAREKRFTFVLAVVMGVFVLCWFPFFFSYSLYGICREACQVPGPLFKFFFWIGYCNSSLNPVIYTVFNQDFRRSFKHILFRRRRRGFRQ
Sequence of Histamine H2 receptor (P25021 whole entry): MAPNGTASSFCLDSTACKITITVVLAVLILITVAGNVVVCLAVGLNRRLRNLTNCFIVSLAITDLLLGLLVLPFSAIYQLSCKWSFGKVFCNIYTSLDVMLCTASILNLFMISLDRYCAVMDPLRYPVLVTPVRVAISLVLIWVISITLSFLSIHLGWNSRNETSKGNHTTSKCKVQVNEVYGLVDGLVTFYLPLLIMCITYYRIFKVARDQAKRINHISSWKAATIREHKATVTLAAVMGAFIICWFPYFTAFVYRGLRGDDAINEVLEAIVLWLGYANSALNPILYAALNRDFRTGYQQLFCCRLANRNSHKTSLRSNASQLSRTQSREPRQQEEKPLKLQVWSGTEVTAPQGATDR
Sequence of Translocator protein (P30536 whole entry): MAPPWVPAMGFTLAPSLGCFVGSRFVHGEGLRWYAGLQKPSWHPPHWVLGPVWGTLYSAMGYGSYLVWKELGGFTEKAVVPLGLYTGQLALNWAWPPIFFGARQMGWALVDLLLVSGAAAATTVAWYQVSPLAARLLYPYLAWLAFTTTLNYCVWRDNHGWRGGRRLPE
Sequence of 5-hydroxytryptamine receptor 2B (P41595 whole entry): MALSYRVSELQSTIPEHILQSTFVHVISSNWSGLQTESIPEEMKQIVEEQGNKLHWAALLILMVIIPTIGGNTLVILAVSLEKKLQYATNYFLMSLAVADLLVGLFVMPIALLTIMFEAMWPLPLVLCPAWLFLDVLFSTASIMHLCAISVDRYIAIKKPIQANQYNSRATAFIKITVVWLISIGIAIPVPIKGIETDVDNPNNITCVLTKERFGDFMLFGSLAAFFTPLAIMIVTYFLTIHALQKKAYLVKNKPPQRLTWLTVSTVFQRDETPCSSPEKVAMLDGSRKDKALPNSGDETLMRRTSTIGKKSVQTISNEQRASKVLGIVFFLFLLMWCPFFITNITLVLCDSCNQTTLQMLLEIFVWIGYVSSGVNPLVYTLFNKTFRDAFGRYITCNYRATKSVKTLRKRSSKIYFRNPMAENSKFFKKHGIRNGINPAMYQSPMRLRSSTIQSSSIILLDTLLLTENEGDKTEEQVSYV
Sequence of Adenosine receptor A2a (Rattus norvegicus, UniProt P30543) (P30543 whole entry): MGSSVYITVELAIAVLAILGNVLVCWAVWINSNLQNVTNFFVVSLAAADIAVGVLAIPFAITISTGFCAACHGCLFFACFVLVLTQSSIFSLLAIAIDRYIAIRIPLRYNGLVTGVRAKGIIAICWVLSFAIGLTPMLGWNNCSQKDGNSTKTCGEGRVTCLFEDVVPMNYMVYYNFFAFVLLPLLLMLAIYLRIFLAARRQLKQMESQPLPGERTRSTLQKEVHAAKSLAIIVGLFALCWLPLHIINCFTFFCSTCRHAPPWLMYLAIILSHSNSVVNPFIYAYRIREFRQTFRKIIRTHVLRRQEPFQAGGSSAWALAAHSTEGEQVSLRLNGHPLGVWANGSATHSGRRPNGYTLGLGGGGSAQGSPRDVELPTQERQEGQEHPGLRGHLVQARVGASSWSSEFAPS

Ki [3]	Ki [4]	Ki [5]	inhibition at 10 µM [6]	Structure (SMILES)	also measured
0.38 nM	915 nM	> 10000 nM	–	OC[C@H]1O[C@@H](n2cnc3c(N[C@H]4C[C@H]5CC[C@@H]4C5)ncnc32)[C@H](O)[C@@H]1O	Ki [2]: 0.34 nM
1050 nM	20.6 nM	–	37%	Clc1ccc(C#Cc2nc(N[C@H]3C[C@H]4CC[C@@H]3C4)c3nc[nH]c3n2)s1	Ki [13]: 3640 nM
1490 nM	11.7 nM	7070 nM	–	O[C@H]1CCC[C@@H]1Nc1nc(C#Cc2ccc(Cl)s2)nc2[nH]cnc12	Ki [16]: 1100 nM; Ki [10]: 1860 nM

More lines, now with the values behind:

Structure (SMILES)	Ki [3]	Ki [4]	Ki [5]	inhibition at 10 µM [6]	also measured
OC[C@H]1O[C@@H](n2cnc3c(NCc4cccc(Cl)c4)ncnc32)[C@H](O)[C@@H]1O	–	–	–	–	Ki [1]: > 10000 nM; Ki [2]: 45 nM
Fc1ccc(C#Cc2nc(NCc3cccc(Cl)c3)c3nc[nH]c3n2)cc1F	–	–	–	< 10%	–
CNc1nc(C#Cc2ccc(Cl)s2)nc2[nH]cnc12	–	79.2 nM	1330 nM	–	inhibition [7]: 25%; inhibition at 10 µM [8]: 6.2%
Oc1ccc(CCNc2nc(C#Cc3ccc(Cl)s3)nc3[nH]cnc23)cc1O	–	–	–	5%	Ki [9]: 3520 nM; Ki [10]: 1210 nM; inhibition [11]: 20%; inhibition [7]: 28%
Clc1ccc(C#Cc2nc(NC3CCCC3)c3nc[nH]c3n2)s1	1120 nM	17.4 nM	1340 nM	–	Ki [9]: 1490 nM; EC50 [12]: 276 nM
Cn1cnc2c(NCCc3ccccc3)nc(C#Cc3ccc(Cl)s3)nc21	4850 nM	116 nM	–	32%	inhibition [14]: 16%; Ki [15]: 3170 nM
Clc1ccc(C#Cc2nc(NC(C3CC3)C3CC3)c3nc[nH]c3n2)s1	1200 nM	37.1 nM	–	6%	Ki [15]: 2020 nM
O=S(=O)(O)c1ccc(C#Cc2nc(NC(C3CC3)C3CC3)c3nc[nH]c3n2)cc1	–	–	–	21%	inhibition [11]: 26%; inhibition [7]: 54%
Clc1ccc(C#Cc2nc(NCCc3ccccc3)c3nc[nH]c3n2)s1	1750 nM	13 nM	–	21%	Ki [16]: 1190 nM; inhibition [14]: 7%; Ki [13]: 520 nM; inhibition at 10 µM [8]: -10.4%
